According to patent US4020111A, “Propynyloxy alkyl arene insecticides” (priority 1975, dated 1977):

Legend:
[1] = tested on: Wilson strain house flies; assay type: in vivo, house fly (susceptible Wilson strain); details: for Contact Synergistic Ratio, Carbaryl (LC50 insecticide alone / LC50 with synergist): in vivo; for Contact Synergistic Ratio, Pyrolan (LC50 insecticide alone / LC50 with synergist): synergist to insecticide 5:1 by weight, 24 h
Method: The required solutions of the insecticide and of the synergist compound were prepared in acetone at a concentration of one milligram per milliliter. One-pint wide mouth glass jars were coated wiith the appropriate insecticide-synergist combination by rolling the jars containing aliquots of the appropriate solutions diluted to three milliliters with acetone to deposit, by evaporation, a film of the test materials. The flies were transferred under carbon dioxide anesthesia and held in the jar at room temperature. Perforated aluminum foil was used to cover the jars and to hold cotton saturated with 10% sugar solution. Counts were made at intervals, but the recorded mortality was based on 24-hour kill, rather than knockdown. All prostrate nonmoving flies were considered dead. A determination was then made of the contact synergistic ratio [SR], which is the ratio of the LC50 of insecticide alone to the LC50 of the insecticide when applied together with the synergist. The LC50 of the insecticide was estimated from a log-probit plot of percent kill versus dosage. […] The LC50 of the combination of insecticide and synergist was determined at a synergist to insecticide parts by weight ratio of five to one.

mice [2] = experiment: synergism of acute toxicity of Dimetilan, GS 13005, Secobarbital and Methadone (intraperitoneal); assay type: in vivo, Swiss albino white male mice; details: 48 hours, of eight mice
Method: The synergism of the acute toxicity of Dimetilan by various synergists was determined by tests on Swiss albino, white male mice aged 5 to 6 weeks and weighing 23 to 27 grams. The synergists and insecticides were dissolved in corn oil and the drugs were dissolved in distilled water. All compounds were administered intraperitoneally by injection in the lower quadrent of the abdomen. The synergist was administered in 0.1 ml of corn oil 1 hour prior to administration of the insecticide. Eight mice were treated, per dosage, with each synergist. The mice were watched for a minimum of 6 hours while held in a glass jar with bedding individually after intraperitoneal injection of the test solutions. Lethality was noted, the animals were weighed and transferred in cages, and food and water were supplied. Control mice were given 0.1 ml of corn oil at the time of administration of the synergist to the test mice and 0.1 ml corn oil plus Dimetilan at the time of administration of the insecticide to the test mice.
By the same procedure, the synergism of acute toxicity of GS 13005, Secobarbital and 6-dimethylamino-4,4-diphenyl-3-heptanone [Methadone] was determined.

mice [3] = experiment: extension of Secobarbital sleeping time by synergists; assay type: in vivo, Swiss albino white male mice; details: Secobarbital 37 mg/K; for Relative Sleeping Time: treated/control
Method: (§1) The selectivity of the synergist compounds of this invention is illustrated by the results of sleeping-time extension tests and of acute toxicity tests on Swiss albino white male mice.
(§2) The effect of various synergist compounds on sleeping time of sodium secobarbital [Secobarbital] and of 3,3-diethyl-5-methyl-2,4-dioxypiperidine [Noludar] was determined by administering the drug, with and without synergist, to approximately 38-day old male mice weighing from 25 to 30 grams. Synergists were administered in each of two doses, 74.0 mg/kg (dilution being 2.0 mg/0.1 ml corn oil), and 110.0 mg/kg (dilution 3.0 mg/0.1 ml oil). Secobarbital was administered at a dose of 37.0 mg/kg (dilution 1.0 mg/0.1 ml water). Noludar was administered at a dose of 110.0 mg/kg (dilution 3.0 mg/0.1 ml water). The synergist was administered one hour prior to administration of the Secobarbital or Noludar. Secobarbital and Noludar sleeping times were obtained for both the control (drug only) and the treated (synergist plus drug) mice by noting the time lapse between the administration of the drug and the recovery of the righting reflex, i.e. when the animal regains conciousness and can walk up an inclined wooden tray with coordination. The relative sleeping time (R.S.) was noted. The R.S. is the extended sleeping time in the treated mice (synergist plus drug) divided by the sleeping time in the control mice (drug only). The mean sleeping time for the treated mice and the R.S. are shown on Table XXXXIV for various synergist compounds.

mice [4] = experiment: extension of Noludar sleeping time by synergists; assay type: in vivo, Swiss albino white male mice; details: Noludar 110 mg/K, synergist 110 mg/K; for Relative Sleeping Time: treated/control
Method: as §1, §2

[5] = tested on: polyvalent resistant (CH strain) houseflies; experiment: whole plant or invertebrate; assay type: in vivo, housefly (CH strain); details: Musca domestica, topical, 24 h
Method: The effect of O-(2-propynyl) oximes with Dimetilan and with GS 13798 was obtained from tests on polyvalent resistant (CH strain) houseflies that had been chilled and to the dorsal region of which was applied an acetone solution of synergist and insecticide at a ratio of two to one. Duplicate tests were performed using 10 four to five-day old female houseflies per test. After dosage, the flies were put in a plastic petri dish with cotton soaked in a sugar-water solution. These doses of insecticide used without synergist caused 10-40% mortality.
(§3) In Table IX, and in the tables following it, the doses of topically applied insecticides and of synergists unless otherwise noted are expressed as micrograms per fly (μg/fly).
The effect of compounds II-C, II-D and II-E with Dimetilan and GS 13798 was determined, following the procedure of Example 5, from tests on polyvalent resistant (CH strain) houseflies. These doses of insecticide used without synergist caused 10-40% mortality.
(§4) The synergistic effect with GS 13005 of compounds I-A, I-B, I-D, I-E, I-F, I-G and I-I was determined from topical application tests to IN/WHO strain, Rutgers A strain and polyvalent CH strain houseflies using the procedures of Example 5. The percent kills of the IN/WHO strain flies after 24 hours are shown in Table XXVIII; of the Rutgers A strain, in Table XXIX; and of the polyvalent CH strain, in Table XXX. The doses of insecticide alone to the CH strain files caused 10-40% mortality.
(§5) The synergistic effect with Diazinon and GS 13005 of various of the benzyl 2-propynyl ethers identified in Tables II and IIa was determined by topical application tests on IN/WHO strain, and Rutgers A strain and polyvalent, resistant, CH strain houseflies using the procedures of Example 5. The percent kills after 24 hours of IN/WHO strain flies are shown in Table XXXI; of Rutgers A strain flies, in Table XXXII; and of CH strain flies, in Table XXXIII. The doses of insecticide alone to the CH strain flies caused 10-40% mortality.
The synergistic effect with pyrethrum of various synergist compounds was determined by topical application tests on polyvalent, resistant CH strain houseflies following the procedure of Example 5. Application of the insecticide alone caused 10-40% mortality.

[6] = tested on: IN/WHO strain house flies; experiment: topical application test, percent kill after 24 hours, IN/WHO strain; assay type: in vivo, house fly (susceptible IN/WHO strain)
Method: as §3
The synergistic effect of O-(2-propynyl) oximes with mobam was determined from topical application tests on susceptible, female, IN/WHO strain house flies and from tests on resistant, female, Rutgers A strain house flies. The synergist and insecticide were dissolved in ACS Grade acetone in such quantities that a 1.0μ liter volume applied to the thorax of 3-to-5 day old CO2 -anesthetized female adult house flies contained the desired dosage. After being treated, the flies were confined, 10 to a plaster petri dish, with 3-5 dishes/treatment, and held for 24-hr. observation of mortality. Reconstituted skim milk on cotton dental wicks was provided during the holding period. The percent kills after 24 hours are shown in Table X for the IN/WHO strain and Table XI for the Rutgers A strain.
The synergistic effect of benzyl 2-propynyl ethers with mobam was determined from topical application tests on IN/WHO and Rutgers A strain houseflies, following the procedure of Example 5. The percent kills after 24 hours are shown in Table XIV for the IN/WHO strain and in Table XV for the Rutgers A strain.
The effects of varying the insecticide dose and the synergist-insecticide ratio are further illustrated, with synergist compounds II-D, II-E, II-F and Mobam insecticide, in Tables XVI, XVII and XVIII.
The synergistic effect on IN/WHO flies of synergist compound II-K with Dimetilan, pyrolan, Baygon and HRS 1422 is illustrated by the 24 hour percent mortality data in Tables XIX, XX and XXI.
The effect on IN/WHO flies of synergist compound IV-C, identified in Table IV, with mobam was determined by the topical application procedure of Example 5.
The synergistic effect with Diazinon of compounds I-B, I-D, I-F, I-G, I-H and I-I, identified in Tables I and Ia, was determined from topical application tests on IN/WHO strain houseflies and on Rutgers A strain houseflies by the procedure of Example 5. The percent kills after 24 hours are shown in Table XXV for the IN/WHO strain and Table XXVI for the Rutgers A strain.
as §4, §5
The synergist effect on IN/WHO flies of synergist compound II-K with Gardona and Bidrin is illustrated by the 24 hour percent mortality data in Tables XXXIV and XXXV.
The synergistic effect on IN/WHO strain flies and Rutgers A strain flies of compound IV-C with GS 13005 and with Diazinon was determined by the topical application procedure of Example 5. The percent kills of IN/WHO strain flies after 24 hours are shown in Tables XXXVI and XXXVII; the percent kills of Rutgers A strain flies are shown in Tables XXXVIII and XXXIX.

[7] = Dimetilan 8 mg/kg + synergist 240 mg/kg ip

Compound	Contact Synergistic Ratio, Carbaryl (LC50 insecticide alone / LC50 with synergist) [1]	Contact Synergistic Ratio, Pyrolan (LC50 insecticide alone / LC50 with synergist) [1]	number of mice dead (mice [2]; [7])	Mean Sleeping Time (mice [3]; synergist 110 mg/K) [min]	Relative Sleeping Time (mice [3]; synergist 110 mg/K)	Mean Sleeping Time (mice [4]) [min]	Relative Sleeping Time (mice [4])	other results
C#CCON=Cc1ccc(N(C)C)cc1 [I-C]	200	20	0	108	1.8	34	1.0	Mean Sleeping Time (mice [3]; synergist 74 mg/K): 30 min; Relative Sleeping Time (mice [3]; synergist 74 mg/K): 1.1
CNC(=O)Oc1cccc2ccc(C)nc12 [GS 13798, 8-(2-methylquinolyl)-N-methylcarbamate, reference compound]								mortality at 1 µg/fly ([5]; read-out: mortality, insecticide used without synergist): 10 to 40%
C#CCn1nc(Cl)c2ccccc21 [III-B]	117	30	0	6	1.3	46	1.0	
C#CCn1ncc2cc([N+](=O)[O-])ccc21 [III-A]	143	30	0	50	1.1	32	1.0	
C#CCOC(c1ccc(Cl)cc1Cl)C(C)[N+](=O)[O-] (stereo not drawn) [IV-A, 2-propynyl 1-(2,4-dichlorophenyl)-2-nitropropyl ether]	134	10	7			78	2.7	number of mice dead (mice [2]; Dimetilan 8 mg/kg + synergist 80 mg/kg ip): 4; Mean Sleeping Time (mice [3]; synergist 74 mg/K): 56 min; Relative Sleeping Time (mice [3]; synergist 74 mg/K): 2.3
CCOP(=S)(OCC)Oc1cc(C)nc(C(C)C)n1 [Diazinon, O,O-diethyl O-(2-isopropyl-4-methyl-6-pyrimidyl) phosphorothioate, reference compound]								percent kill after 24 hours ([6]; Diazinon alone 0.03 μg/fly, 1440 min): 5%; mortality at 5 µg/fly ([5]; read-out: mortality, insecticide alone): 10 to 40%
C#CCOCc1cc(Cl)c(Cl)cc1Cl [II-F]	150	15	0	46	1.0	38	1.3	percent mortality 24 hours ([6]; Mobam 0.13 μg/fly, synergist/insecticide 5/1): 23%
Cc1cc(OC(=O)N(C)C)n(-c2ccccc2)n1 [Pyrolan, 3-methyl-1-phenyl-5-pyrazolyl-N-dimethylcarbamate, reference compound]								24 hour percent mortality ([6]; Pyrolan alone 0.63 μg/fly): 0%; 24 hour percent mortality ([6]; Pyrolan alone 1.3 μg/fly): 3%; 24 hour percent mortality ([6]; Pyrolan alone 2.5 μg/fly): 10%; 24 hour percent mortality ([6]; Pyrolan alone 5.0 μg/fly): 43%; LC50 of insecticide alone ([1]; insecticide alone, 24-hour kill): 0.15 mg/jar
C#CCn1ncc2ccc(Cl)cc21 [III-D]	250	25	1	55	1.2	45	1.5	
